Experimental data as given in patent US20240041042A1, “1-(PYRIDYL)-5-AZINYLPYRAZOLE DERIVATIVES, AND THEIR USE FOR CONTROL OF UNDESIRED PLANT GROWTH” (Bayer Aktiengesellschaft, priority 2020, published 2024).
Where two headings read alike, the source gives them in different places.

Experiments:
Type in all cases: in vivo
[1] = tested on: Alopecurus myosuroides (ALOMY); experiment: Pre-emergence herbicidal action against ALOMY; conditions: 320 g/ha; scored visually after about 3 weeks; 100% = plants have died
Outline: (§1)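 Read-out is visual percent damage relative to untreated pots, with 100% meaning dead plants and 0% meaning no difference, assessed roughly three weeks after treatment. Compounds were applied pre-emergence to the covering soil at up to 320 g/ha.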

[2] = tested on: Echinochloa crus-galli (ECHCG); experiment: Pre-emergence herbicidal action against ECHCG; conditions: dosage 320 g/ha
Outline: as §1

[3] = tested on: Pharbitis purpurea (PHBPU); experiment: Pre-emergence herbicidal action against PHBPU; conditions: dosage 320 g/ha
Outline: as §1

[4] = tested on: Polygonum convolvulus (POLCO); experiment: Pre-emergence herbicidal action against POLCO
Outline: as §1

[5] = tested on: Verconica persica (VERPE); experiment: Pre-emergence herbicidal action against VERPE
Outline: as §1

Viola tricolor (VIOTR) [6] = experiment: Pre-emergence herbicidal action against VIOTR
Outline: as §1

Zea mays (ZEAMX) [7] = conditions: pre-emergence, crop plant compatibility, in comparison to untreated controls
Text: Seeds of monocotyledonous and dicotyledonous weed plants and crop plants are placed in plastic or organic planting pots and covered with soil. The compounds of the invention, formulated in the form of wettable powders (WP) or as emulsion concentrates (EC), are then applied to the surface of the covering soil as aqueous suspension or emulsion with addition of 0.5% additive at a water application rate equivalent to 600 l/ha. After the treatment, the pots are placed in a greenhouse and kept under good growth conditions for the trial plants. After about 3 weeks, the effect of the preparations is scored visually in comparison with untreated controls as percentages. For example, 100% activity=the plants have died, 0% activity=like control plants.
The observed effects on selected crop plants are reported here in comparison to the untreated controls (values in %). The appendices “a” “b” and “c” give differentiation by dosage used with otherwise the same crop plants tested.

[8] = tested on: Abutilon theophrasti (ABUTH); experiment: Post-emergence herbicidal action against ABUTH; conditions: 320 g/ha, visual rating about 3 weeks after treatment vs untreated controls (100% = plants have died, 0% = like control plants)
Outline: (§2)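 Rates were 320 g/ha or below, applied as aqueous WP/EC spray with 0.5% additive (600 l/ha) onto one-leaf-stage plants. About 3 weeks later in the greenhouse, damage was scored visually against untreated plants on a 0–100% scale, where 100% means plants died.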

[9] = tested on: Echinochloa crus-galli (ECHCG); experiment: Post-emergence herbicidal action against ECHCG
Outline: as §2

[10] = tested on: Pharbitis purpurea (PHBPU); experiment: Post-emergence herbicidal action against PHBPU; conditions: dosage 320 g/ha
Outline: as §2

Setaria viridis (SETVI) [11] = experiment: Post-emergence herbicidal action against SETVI; conditions: dosage 320 g/ha
Outline: as §2

[12] = tested on: Verconica persica (VERPE); experiment: Post-emergence herbicidal action against VERPE
Outline: as §2

Oryza sativa (ORYSA) = conditions: crop plant compatibility, 80 g/ha, effect in comparison to untreated controls
Outline: (§3)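 Greenhouse crops in sandy loam sprayed post-emergence at the one-leaf stage, 2–3 weeks after sowing, with WP or EC formulations in water plus 0.5% additive at 600 l/ha. Damage rated visually about 3 weeks later versus untreated controls (0% = like control, 100% = dead); suffixes a–c denote different doses.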

Zea mays (ZEAMX) [13] = conditions: crop plant compatibility, 80 g/ha, effect vs untreated controls
Outline: as §3

[14] = tested on: Amaranthus retroflexus (AMARE); experiment: Pre-emergence herbicidal action against AMARE; conditions: visual scoring after about 3 weeks vs untreated controls
Outline: as §1

Avena fatua (AVEFA) [15] = experiment: Pre-emergence herbicidal action against AVEFA; conditions: 320 g/ha, visual scoring after about 3 weeks vs untreated controls
Outline: as §1

Lolium rigidum (LOLRI) [16] = experiment: Pre-emergence herbicidal action against LOLRI
Outline: as §1

[17] = tested on: Matricaria inodora (MATIN); experiment: Pre-emergence herbicidal action against MATIN; conditions: dosage 320 g/ha
Outline: as §1

Setaria viridis (SETVI) [18] = experiment: Pre-emergence herbicidal action against SETVI; conditions: dosage 320 g/ha
Outline: as §1

[19] = tested on: Alopecurus myosuroides (ALOMY); experiment: Post-emergence herbicidal action against ALOMY; conditions: visual rating about 3 weeks after treatment vs untreated controls (100% = plants have died, 0% = like control plants)
Outline: as §2

[20] = tested on: Amaranthus retroflexus (AMARE); experiment: Post-emergence herbicidal action against AMARE
Outline: as §2

Avena fatua (AVEFA) [21] = experiment: Post-emergence herbicidal action against AVEFA; conditions: visual rating about 3 weeks after treatment
Outline: as §2

Lolium rigidum (LOLRI) [22] = experiment: Post-emergence herbicidal action against LOLRI
Outline: as §2

[23] = tested on: Polygonum convolvulus (POLCO); experiment: Post-emergence herbicidal action against POLCO
Outline: as §2

Viola tricolor (VIOTR) [24] = experiment: Post-emergence herbicidal action against VIOTR
Outline: as §2

[25] = tested on: Matricaria inodora (MATIN); experiment: Post-emergence herbicidal action against MATIN; conditions: dosage 320 g/ha
Outline: as §2

[26] = 80 g/ha, visual rating about 3 weeks after treatment vs untreated controls (100% = plants have died, 0% = like control plants)
[27] = 320 g/ha, visual rating about 3 weeks after treatment

SMILES	Pre-emergence action against ALOMY [1] [%]	Pre-emergence action against ECHCG in % [2] [%]	Pre-emergence action against POLCO in % ([4]; dosage 320 g/ha) [%]	Pre-emergence action against VERPE in % ([5]; dosage 320 g/ha) [%]	Pre-emergence action against VIOTR in % (Viola tricolor (VIOTR) [6]; 320 g/ha, Viola tricolor) [%]	Pre-emergence action against VIOTR in % (Viola tricolor (VIOTR) [6]; dosage 80 g/ha) [%]	Pre-emergence action against ZEAMX in % (Zea mays (ZEAMX) [7]; 80 g/ha) [%]	Post-emergence action against ABUTH in % [8] [%]	Post-emergence action against ECHCG in % ([9]; dosage 80 g/ha) [%]	Post-emergence action against ECHCG in % ([9]; dosage 320 g/ha) [%]	Post-emergence action against PHBPU in % [10] [%]	Post-emergence action against SETVI in % (Setaria viridis (SETVI) [11]) [%]	Post-emergence action against VERPE in % ([12]; 320 g/ha, VERPE) [%]	Post-emergence action against VERPE in % ([12]; dosage 80 g/ha) [%]	Post-emergence action against ORYSA in % (Oryza sativa (ORYSA)) [%]	Post-emergence action against ZEAMX in % (Zea mays (ZEAMX) [13]) [%]	Pre-emergence action against AMARE in % ([14]; 320 g/ha) [%]	Pre-emergence action against LOLRI in % (Lolium rigidum (LOLRI) [16]; dosage 320 g/ha) [%]	Pre-emergence action against MATIN in % [17] [%]	Pre-emergence action against SETVI in % (Setaria viridis (SETVI) [18]) [%]	also measured
COCCOC(=O)COc1nn(-c2ncccc2C(F)(F)F)c(-c2cncc(F)c2)c1Br [Example I-157]	80	80	90	90	100	80	10	80	80	90	80	80	90	80	10	20	–	–	–	–	Pre-emergence action against PHBPU in % [3]: 90%
CCOC(=O)[C@@H](C)Oc1nn(-c2ncccc2Cl)c(-c2ccc(F)nc2)c1Br [Example I-27]	100	100	100	100	100	100	20	90	90	90	–	90	90	80	0	–	100	100	80	100	Pre-emergence action against AMARE in % ([14]; 80 g/ha): 90%; Pre-emergence action against AVEFA in % (Avena fatua (AVEFA) [15]): 100%; Pre-emergence action against LOLRI in % (Lolium rigidum (LOLRI) [16]; dosage 80 g/ha): 100%; Pre-emergence action against POLCO in % ([4]; dosage 80 g/ha): 90%; Pre-emergence action against VERPE in % ([5]; dosage 80 g/ha): 80%; Post-emergence action against ALOMY in % ([19]; 80 g/ha): 80%; Post-emergence action against ALOMY in % ([19]; 320 g/ha): 100%; Post-emergence action against AMARE in % [20, 26]: 90%; Post-emergence action against AMARE in % [20, 27]: 90%; Post-emergence action against AVEFA in % (Avena fatua (AVEFA) [21]; 80 g/ha): 100%; Post-emergence action against AVEFA in % (Avena fatua (AVEFA) [21]; 320 g/ha): 100%; Post-emergence action against LOLRI in % (Lolium rigidum (LOLRI) [22]; dosage 80 g/ha): 90%; Post-emergence action against LOLRI in % (Lolium rigidum (LOLRI) [22]; dosage 320 g/ha): 90%; Post-emergence action against POLCO in % ([23]; dosage 80 g/ha): 80%; Post-emergence action against POLCO in % ([23]; dosage 320 g/ha): 80%; Post-emergence action against VIOTR in % (Viola tricolor (VIOTR) [24]; 80 g/ha): 80%; Post-emergence action against VIOTR in % (Viola tricolor (VIOTR) [24]; 320 g/ha): 80%
O=C(O)COc1nn(-c2ccccn2)c(-c2ccc(F)nc2)c1F [Example I-373]	90	90	90	–	–	–	0	80	–	90	80	90	90	–	0	0	90	80	90	80	Pre-emergence action against ZEAMX in % (Zea mays (ZEAMX) [7]; 320 g/ha): 0%; Post-emergence action against AMARE in % [20, 26]: 80%; Post-emergence action against AMARE in % [20, 27]: 80%; Post-emergence action against MATIN in % [25]: 90%; Post-emergence action against POLCO in % ([23]; dosage 320 g/ha): 80%
